Experimental data reported in patent US20250281460A1, “PEGYLATED BILIRUBIN FOR THE TREATMENT OF […], OBESITY, FATTY LIVER DISEASE, CARDIOVASCULAR DISEASES AND TYPE II DIABETES” (The University of Toledo, priority 2019, published 2025).
“Also recorded” adds a separate entry of the source.

How the values were obtained:
[1] = system: 3T3-L1 cells; assay: Adipogenesis assay, lipid accumulation (Nile Red) in 3T3-L1 cells; format: cell-based, mouse; conditions: over 9-day adipocytic differentiation
Description: Whether bilirubin decreases adiposity by enhancing mitochondrial function was evaluated. It was previously shown that bilirubin reduces lipid accumulation in adipocytes. However, it remained to be determined if this occurs by activation of PPARα to reduce adiposity, selective actions on PPARγ, or is a dual PPAR agonist, which together may mediate its glucose- and lipid-lowering effects. First, to determine if bilirubin enhances genes for mitochondrial function, 3T3-L1 cells, a WAT-type murine pre-adipocyte cell line that differentiates to full adipocytes, were treated with increasing concentrations of biliverdin, which is more soluble and is rapidly produced to bilirubin, over the 9-day adipocytic differentiation protocol.

[2] = biological target: T1, PPARα (Mus musculus, UniProt P23204)
T1 sequence (P23204 1-468): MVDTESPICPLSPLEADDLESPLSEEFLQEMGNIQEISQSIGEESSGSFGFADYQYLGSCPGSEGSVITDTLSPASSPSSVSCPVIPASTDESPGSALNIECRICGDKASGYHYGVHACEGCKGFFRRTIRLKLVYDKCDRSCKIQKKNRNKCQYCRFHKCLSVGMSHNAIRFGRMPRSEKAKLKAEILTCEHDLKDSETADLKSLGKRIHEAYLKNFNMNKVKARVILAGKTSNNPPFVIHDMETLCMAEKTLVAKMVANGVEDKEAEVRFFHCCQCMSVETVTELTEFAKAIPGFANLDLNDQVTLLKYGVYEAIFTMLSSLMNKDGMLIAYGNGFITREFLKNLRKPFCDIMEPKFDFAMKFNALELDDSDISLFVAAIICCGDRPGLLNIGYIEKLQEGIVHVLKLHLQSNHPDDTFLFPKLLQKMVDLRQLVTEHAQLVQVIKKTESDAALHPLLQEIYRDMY
Description: Cells were crosslinked with formaldehyde with a final concentration of 1% in media while shaking at room temperature for 10 min. The activity of the formaldehyde was quench with the addition of glycine while rocking for 5 min at room temperature. Cells were washed twice with 1×PBS, collected into a 15 ml conical tube and spun down at 3,000 rpm for 5 min. Pellets were rapidly frozen on dry ice ethanol mix and stored at −80° C. for a minimum of 1 hour or immediately resuspended in a series of lysis buffers (see table for ChIP buffer table) containing protease inhibitors for 5 min. Cells were sonicated for approximately 8 min per sample. The lysates were centrifuged for 10 min at 4° C. at 13,000 rpm. The lysates were pre-cleared in BSA/Salmon sperm blocked beads rotating for 2 hours at 4° C. […] Lysates were then incubated with Agarose A beads and rotated for 4 hours at 4° C. The samples were then washed with a ChIP washing buffer (see table for ChIP buffer table) 5 times. The protein was eluted in an Elution buffer at 65° C. for 30 min shaking every 2 min. The eluted samples were transferred to another tube and incubated at 65° C. overnight to reverse crosslinking. The samples were purified after 1-hour incubation with Proteinase K at 55° C. with a isopropanol/chloroform/ethanol mixture. DNA was quantified on a NanoDrop 2000 spectrophotometer (Thermo Fisher Scientific, Wilmington, DE). PCR amplification of the genomic DNA was performed by quantitative real-time PCR using TrueAmp SYBR Green qPCR SuperMix (Advance Bioscience). The thermocycling protocol consisted of 2 min at 50° C. and then 10 min at 95° C., 48 cycles of 30 sec at 95° C., 1 min at 65° C.

[3] = system: 3T3-PPARα cells; assay: SeaHorse mitochondrial respiration in 3T3-PPARα cells; format: cell-based, mouse; conditions: 3T3-L1 cells overexpressing PPARα
Excerpt: (§1) To investigate the specific role of bilirubin on PPARα or PPARγ as well as mitochondrial function and gene regulation, 3T3-LI cells that overexpressed each receptor (3T3-PPARα or 3T3-PPARγ2) were generated via lentivirus (FIGS. 2A-2B). […] The 3T3-Vector cells had no responses to biliverdin in FIGS. 2A-2B.
(§2) Cellular respiration was quantified using the Seahorse Extracellular Flux Analyzer XF-96 (Agilent Technologies, Cedar Creek, TX). The Seahorse XF Cell Mito Stress Test Kit (Agilent Technologies, Cat #103015-100) was used for analysis of cellular respiration. BAT or 3T3-L1 cells were seeded on a XF96 cell culture microplate (Agilent 101085-004) at 20,000 cells per well. Cells were then differentiated as previously described for 9 days. […] The oxygen consumption rate (OCR) and extracellular acidification rate (ECAR) were used to quantify the cellular energy phenotype of the cells. After treatment, cells were washed twice with Seahorse Bioscience Assay Media (XF Base media with 25 mM Glucose, 2 mM […], and 1 mM Sodium Pyruvate) then incubated with the buffer for 1 hour in a non-CO2 incubator. The Seahorse Cartridge ports were loaded with […] of assay media with […] FCCP, 10 μM Oligomycin, 5 μM Rotenone/Antimycin A in different ports an hour before assay. […] The raw data and graphs were supplied as an Excel File or Graphpad Prizm file.

[4] = system: 3T3-Vector cells; assay: SeaHorse mitochondrial respiration in 3T3-Vector cells; format: cell-based, mouse; conditions: lentiviral empty vector control cells
Excerpt: as §1, §2

[5] = system: Adrb3 promoter; assay: Adrb3 promoter luciferase reporter in Cos7 cells with or without PPARα; format: cell-based, murine
Description: To determine if biliverdin/bilirubin is increasing Adrb3 in a PPARa-dependent manner, the proximal (−2816 to +118) and enhancer (−4770 to −4430) regions of the murine promoter in the pGL4.10 construct were cloned. The constructs were transfected with or without PPARα in receptorless Cos7 cells. The proximal promoter had no response with or without PPARα expressed in Cos7 cells (FIGS. 3D-3E). […] Therefore, various areas within the Adrb3 promoter were analyzed using the information from the luciferase promoter data and with analysis of several suspected PPREs in the promoter region.
An expression vector for Flag-Tagged PPARα was constructed as previously described. The cells were transfected with RXR-SG5 and either WT-Flag PPARα or with a Flag-Tagged PPARα plasmid with one of the following mutations: M330G, A333G, or T283G, in order to determine if binding of bilirubin at previously predicted positions would alter activity. Cells were also transfected with RXR-SG5 to enhance PPAR activity and the PPAR minimal reporter promoter plasmid (3Tk-Luc), whose activity was measured by luciferase, and pRL-CMV Renilla reporter for normalization to transfection efficiency. Transient transfection was achieved using GeneFect (Alkali Scientific, Inc.) during a 24-hour span.

C=CC1=C(C)/C(=C/C2=NC(=C\c3[nH]c(/C=C4\NC(=O)C(C)=C4C=C)c(C)c3CCC(=O)O)/C(CCC(=O)O)=C2C)NC1=O [biliverdin]
lipid accumulation ([1]; 1 μM): did not reduce
lipid accumulation ([1]; 10 μM): significantly reduced
lipid accumulation ([1]; 50 μM): significantly reduced
lipid accumulation ([1]; 50 μM, listed as Biliverdin): significantly reduced; also recorded: substantially decreased
PPARα occupancy at the 13K enhancer of the Ucp1 ([2]; 50 μM, 24 hours): significantly increased
PPARα occupancy at the −3306 to −3109 region of the Cpt1 promoter ([2]; 50 μM, 24 hours): significantly increased
occupancy of PPARα at 13K enhancer of the Ucp1 ([2]; BAT cells): increased
occupancy of PPARα at the Cpt1 promoter ([2]; BAT cells): increased
occupancy of PPARα at the enhancer region of the Adrb3 promoter ([2]; BAT cells): intensified
ATP production [3]: significantly higher
basal respiration [3]: significantly higher
maximum respiration [3]: significantly higher
proton leak [3]: significantly higher
responses (mitochondrial respiration) [4]: no responses
luciferase activity, enhancer region with mutated PPREs ([5]; mutations in each PPRE separately): no induction
luciferase activity, enhancer (−4770 to −4430) region ([5]; with PPARα overexpression): significantly higher
luciferase activity, proximal (−2816 to +118) promoter ([5]; with or without PPARα expressed in Cos7 cells): no response
